# Structures can show the parent of a compound that is named as a salt. Where two headings read alike, the source gives them in different places.
# Columns and labels:
# Test in all cases: AK assay 384-well format, Prestwick library screening
# [1] = system: E. faecium; assay type: cell-based, Enterococcus faecium; conditions: 50 μM final drug concentration; for fold induction at 50 µM: Enterococcus faecium, 3 h
# [2] = system: S. aureus strain USA300-0114; assay type: cell-based, Staphylococcus aureus; conditions: 50 μM final drug concentration; for fold induction at 50 µM: Staphylococcus aureus, USA300, 3 h
# [3] = system: K. pneumoniae; assay type: cell-based, Klebsiella pneumoniae; conditions: 50 μM final drug concentration; for fold induction at 50 µM: Klebsiella pneumoniae, 3 h
# [4] = system: A. baumannii strain 98-37-09; assay type: cell-based, Acinetobacter baumannii; conditions: 50 μM final drug concentration; for fold induction at 50 µM: Acinetobacter baumannii, 983709, 3 h
# [5] = system: P. aeruginosa; assay type: cell-based, Pseudomonas aeruginosa; conditions: 50 μM final drug concentration; for fold induction at 50 µM: Pseudomonas aeruginosa, 3 h
# [6] = system: E. cloacae; assay type: cell-based, Enterobacter cloacae; conditions: 50 μM final drug concentration; for fold induction at 50 µM: Enterobacter cloacae, 3 h
# [7] = system: E. coli; assay type: cell-based, Escherichia coli; conditions: 50 μM final drug concentration; for fold induction at 50 µM: Escherichia coli, 3 h
# [8] = 384-well format, cutoff for positive-scoring molecules 3-fold increase, read-out: AK-based Prestwick Library Screening Results, E. faecium (increase in extracellular AK activity)
# [9] = 384-well format, cutoff for positive-scoring molecules 3-fold increase, read-out: AK-based Prestwick Library Screening Results, S. aureus (increase in extracellular AK activity)
# [10] = 384-well format, cutoff for positive-scoring molecules 3-fold increase, read-out: AK-based Prestwick Library Screening Results, K. pneumoniae (increase in extracellular AK activity)
# [11] = 384-well format, cutoff for positive-scoring molecules 3-fold increase, read-out: AK-based Prestwick Library Screening Results, A. baumannii (increase in extracellular AK activity)
# [12] = 384-well format, cutoff for positive-scoring molecules 3-fold increase, read-out: AK-based Prestwick Library Screening Results, P. aeruginosa (increase in extracellular AK activity)
# [13] = 384-well format, cutoff for positive-scoring molecules 3-fold increase, read-out: AK-based Prestwick Library Screening Results, E. cloacae (increase in extracellular AK activity)
# [14] = 384-well format, cutoff for positive-scoring molecules 3-fold increase, read-out: AK-based Prestwick Library Screening Results, E. coli (increase in extracellular AK activity)
# [15] = planktonic, cutoff for positive 3-fold increase, read-out: AK-based Prestwick Library Screening Results, E. faecium (fold increase in extracellular AK activity)
# [16] = planktonic, cutoff for positive 3-fold increase, read-out: AK-based Prestwick Library Screening Results, S. aureus (fold increase in extracellular AK activity)
# [17] = planktonic, cutoff for positive 3-fold increase, read-out: AK-based Prestwick Library Screening Results, K. pneumoniae (fold increase in extracellular AK activity)
# [18] = planktonic, cutoff for positive 3-fold increase, read-out: AK-based Prestwick Library Screening Results, A. baumannii (fold increase in extracellular AK activity)
# [19] = planktonic, cutoff for positive 3-fold increase, read-out: AK-based Prestwick Library Screening Results, P. aeruginosa (fold increase in extracellular AK activity)
# [20] = planktonic, cutoff for positive 3-fold increase, read-out: AK-based Prestwick Library Screening Results, E. cloacae (fold increase in extracellular AK activity)
# [21] = planktonic, cutoff for positive 3-fold increase, read-out: AK-based Prestwick Library Screening Results, E. coli (fold increase in extracellular AK activity)
# [22] = planktonic, cutoff for positive 3-fold increase
structure (smiles),measurement,setting,value
Clc1ccc2c(c1)C(N1CCNCC1)=Nc1ccccc1O2 [Amoxapine],fold induction at 50 µM,[1]; [8],0.9
same,fold induction at 50 µM,[2]; [9],0.7
same,fold induction at 50 µM,[3]; [10],0.8
same,fold induction at 50 µM,[4]; [11],0.8
same,fold induction at 50 µM,[5]; [12],0.9
same,fold induction at 50 µM,[6]; [13],0.9
same,fold induction at 50 µM,[7]; [14],1
CC(C)NCC(O)COc1ccc(CCOCC2CC2)cc1 (stereo not shown) [Betaxolol hydrochloride],fold induction at 50 µM,[1]; [15],0.9
same,fold induction at 50 µM,[2]; [16],0.9
same,fold induction at 50 µM,[3]; [17],1
same,fold induction at 50 µM,[4]; [18],1.4
same,fold induction at 50 µM,[5]; [19],1.1
same,fold induction at 50 µM,[6]; [20],1.6
same,fold induction at 50 µM,[7]; [21],1.2
C=CCOC(Cn1ccnc1)c1ccc(Cl)cc1Cl (stereo not shown) [Enilconazole],fold induction at 50 µM,"[1]; cutoff for positive-scoring molecules 3-fold increase, read-out: AK-based Prestwick Library Screening Results, E. faecium (fold increase in extracellular AK activity)",1.1
same,fold induction at 50 µM,"[2]; cutoff for positive-scoring molecules 3-fold increase, read-out: AK-based Prestwick Library Screening Results, S. aureus (fold increase in extracellular AK activity)",0.4
same,fold induction at 50 µM,"[3]; cutoff for positive-scoring molecules 3-fold increase, read-out: AK-based Prestwick Library Screening Results, K. pneumoniae (fold increase in extracellular AK activity)",0.5
same,fold induction at 50 µM,"[4]; cutoff for positive-scoring molecules 3-fold increase, read-out: AK-based Prestwick Library Screening Results, A. baumannii (fold increase in extracellular AK activity)",0.4
same,fold induction at 50 µM,"[5]; cutoff for positive-scoring molecules 3-fold increase, read-out: AK-based Prestwick Library Screening Results, P. aeruginosa (fold increase in extracellular AK activity)",0.4
same,fold induction at 50 µM,"[6]; cutoff for positive-scoring molecules 3-fold increase, read-out: AK-based Prestwick Library Screening Results, E. cloacae (fold increase in extracellular AK activity)",0.4
same,fold induction at 50 µM,"[7]; cutoff for positive-scoring molecules 3-fold increase, read-out: AK-based Prestwick Library Screening Results, E. coli (fold increase in extracellular AK activity)",0.5
CC(=O)O[C@H]1C[C@@]2(C)[C@@H](C[C@@H](O)[C@H]3[C@@]4(C)CC[C@@H](O)[C@@H](C)[C@@H]4CC[C@@]32C)/C1=C(\CCC=C(C)C)C(=O)O [Fusidic acid sodium salt],fold induction at 50 µM,[1]; [15],1.1
same,fold induction at 50 µM,[2]; [16],4.2
same,fold induction at 50 µM,[3]; [17],1.1
same,fold induction at 50 µM,[4]; [18],1.3
same,fold induction at 50 µM,[5]; [19],1.1
same,fold induction at 50 µM,[6]; [20],1.4
same,fold induction at 50 µM,[7]; [21],1.1
CC1=NS(=O)(=O)c2cc(Cl)ccc2N1 [Diazoxide],fold induction at 50 µM,[1]; [8],0.9
same,fold induction at 50 µM,[2]; [9],0.5
same,fold induction at 50 µM,[3]; [10],0.4
same,fold induction at 50 µM,[4]; [11],0.4
same,fold induction at 50 µM,[5]; [12],0.4
same,fold induction at 50 µM,[6]; [13],0.4
same,fold induction at 50 µM,[7]; [14],0.5
O=C(O)[C@H](O)[C@@H](O)[C@H](O[C@@H]1O[C@H](CO)[C@H](O)[C@H](O)[C@H]1O)[C@H](O)CO [Lactobionic acid],"AK-based Prestwick Library Screening Results, E. faecium (fold increase in extracellular AK activity)",[1]; [22],1.0
same,"AK-based Prestwick Library Screening Results, S. aureus (fold increase in extracellular AK activity)",[2]; [22],0.8
same,"AK-based Prestwick Library Screening Results, K. pneumoniae (fold increase in extracellular AK activity)",[3]; [22],0.9
same,"AK-based Prestwick Library Screening Results, A. baumannii (fold increase in extracellular AK activity)",[4]; [22],1.1
same,"AK-based Prestwick Library Screening Results, P. aeruginosa (fold increase in extracellular AK activity)",[5]; [22],1.0
same,"AK-based Prestwick Library Screening Results, E. cloacae (fold increase in extracellular AK activity)",[6]; [22],1.2
same,"AK-based Prestwick Library Screening Results, E. coli (fold increase in extracellular AK activity)",[7]; [22],1.0
Nc1ccc(S(=O)(=O)Nc2ccnn2-c2ccccc2)cc1 [Sulfaphenazole],fold induction at 50 µM,[1]; [8],0.8
same,fold induction at 50 µM,[2]; [9],0.8
same,fold induction at 50 µM,[3]; [10],0.7
same,fold induction at 50 µM,[4]; [11],1.4
same,fold induction at 50 µM,[5]; [12],0.8
same,fold induction at 50 µM,[6]; [13],0.8
same,fold induction at 50 µM,[7]; [14],0.8
O=C(O)CCc1nc(-c2ccccc2)c(-c2ccccc2)o1 [Oxaprozin],fold induction at 50 µM,"[1]; planktonic E. faecium, positive cutoff 3-fold increase, read-out: AK-based Prestwick library screening result, E. faecium (fold increase in extracellular AK activity)",1.1
same,fold induction at 50 µM,"[2]; planktonic S. aureus, positive cutoff 3-fold increase, read-out: AK-based Prestwick library screening result, S. aureus (fold increase in extracellular AK activity)",0.5
same,fold induction at 50 µM,"[3]; planktonic K. pneumoniae, positive cutoff 3-fold increase, read-out: AK-based Prestwick library screening result, K. pneumoniae (fold increase in extracellular AK activity)",0.6
same,fold induction at 50 µM,"[4]; planktonic A. baumannii, positive cutoff 3-fold increase, read-out: AK-based Prestwick library screening result, A. baumannii (fold increase in extracellular AK activity)",0.7
same,fold induction at 50 µM,"[5]; planktonic P. aeruginosa, positive cutoff 3-fold increase, read-out: AK-based Prestwick library screening result, P. aeruginosa (fold increase in extracellular AK activity)",0.7
same,fold induction at 50 µM,"[6]; planktonic E. cloacae, positive cutoff 3-fold increase, read-out: AK-based Prestwick library screening result, E. cloacae (fold increase in extracellular AK activity)",0.9
same,fold induction at 50 µM,"[7]; planktonic E. coli, positive cutoff 3-fold increase, read-out: AK-based Prestwick library screening result, E. coli (fold increase in extracellular AK activity)",0.6
C#C[C@]1(OC(C)=O)CC[C@H]2[C@@H]3CCC4=C[C@@H](OC(C)=O)CC[C@@H]4[C@H]3CC[C@@]21C [Ethynodiol diacetate],fold induction at 50 µM,"[1]; planktonic, cutoff for positive-scoring molecules 3-fold increase, read-out: AK-based Prestwick Library Screening Results, E. faecium (fold increase in extracellular AK activity)",0.9
same,fold induction at 50 µM,"[2]; planktonic, cutoff for positive-scoring molecules 3-fold increase, read-out: AK-based Prestwick Library Screening Results, S. aureus (fold increase in extracellular AK activity)",0.5
same,fold induction at 50 µM,"[3]; planktonic, cutoff for positive-scoring molecules 3-fold increase, read-out: AK-based Prestwick Library Screening Results, K. pneumoniae (fold increase in extracellular AK activity)",0.7
same,fold induction at 50 µM,"[4]; planktonic, cutoff for positive-scoring molecules 3-fold increase, read-out: AK-based Prestwick Library Screening Results, A. baumannii (fold increase in extracellular AK activity)",0.9
same,fold induction at 50 µM,"[5]; planktonic, cutoff for positive-scoring molecules 3-fold increase, read-out: AK-based Prestwick Library Screening Results, P. aeruginosa (fold increase in extracellular AK activity)",0.9
same,fold induction at 50 µM,"[6]; planktonic, cutoff for positive-scoring molecules 3-fold increase, read-out: AK-based Prestwick Library Screening Results, E. cloacae (fold increase in extracellular AK activity)",1.1
same,fold induction at 50 µM,"[7]; planktonic, cutoff for positive-scoring molecules 3-fold increase, read-out: AK-based Prestwick Library Screening Results, E. coli (fold increase in extracellular AK activity)",0.8
CN1CCN(C2=Nc3cc(Cl)ccc3Nc3ccccc32)CC1 [Clozapine],fold induction at 50 µM,"[1]; planktonic E. faecium, cutoff for positive-scoring molecules 3-fold increase, read-out: AK-based Prestwick Library Screening Results, E. faecium (increase in extracellular AK activity)",0.9
same,fold induction at 50 µM,"[2]; planktonic S. aureus, cutoff for positive-scoring molecules 3-fold increase, read-out: AK-based Prestwick Library Screening Results, S. aureus (increase in extracellular AK activity)",0.7
same,fold induction at 50 µM,"[3]; planktonic K. pneumoniae, cutoff for positive-scoring molecules 3-fold increase, read-out: AK-based Prestwick Library Screening Results, K. pneumoniae (increase in extracellular AK activity)",0.8
same,fold induction at 50 µM,"[4]; planktonic A. baumannii, cutoff for positive-scoring molecules 3-fold increase, read-out: AK-based Prestwick Library Screening Results, A. baumannii (increase in extracellular AK activity)",0.9
same,fold induction at 50 µM,"[5]; planktonic P. aeruginosa, cutoff for positive-scoring molecules 3-fold increase, read-out: AK-based Prestwick Library Screening Results, P. aeruginosa (increase in extracellular AK activity)",1
same,fold induction at 50 µM,"[6]; planktonic E. cloacae, cutoff for positive-scoring molecules 3-fold increase, read-out: AK-based Prestwick Library Screening Results, E. cloacae (increase in extracellular AK activity)",1
same,fold induction at 50 µM,"[7]; planktonic E. coli, cutoff for positive-scoring molecules 3-fold increase, read-out: AK-based Prestwick Library Screening Results, E. coli (increase in extracellular AK activity)",0.9
